The record followed here is patent US20240140895A1, “NOVEL AROMATIC MOLECULES” (XENIOPRO GmbH, priority 2018, published 2024).

What all share (type): cell-based
Assay [1] relates to MDA-MB-231 cells (human breast carcinoma cells). Kind of assay: Proliferation assay (alamarBlue) with MDA-MB-231 cells. Particulars: Homo sapiens, read-out: Activity Range: weighted arithmetic mean (AVEw) of normalized fluorescence intensity relative to DMSO basis level 1.0. The source says:
(§1) The antiproliferative activities of compounds falling under formula (Ia), (Tb) and (Ic), respectively, were investigated on cells or cell lines originating from a disorder of the haematopoietic system, including the myeloid cell compartment and the lymphoid cell compartment (T-cells and B-cells), the neuroendocrine system, the cervix, the breast, the ovaries, the lung, the gastrointestinal tract, and the mucosal epithelium, as well as from the skin epithelium and from the muscle. To this end, HL-60 cells, NB-4 cells, HH cells, RPMI-8402 cells, TANOUE cells, TT cells, HeLa cells, MDA-MB-231 cells, FU-OV-1 cells, LOU-NH91 cells, 23132/87 cells, CAL-27 cells, BHY cells, SCC-25 cells, A-431 cells, human primary epidermal keratinocytes (HPEK), and C2C12 cells were seeded into 96-well plates suitable for fluorescence assays (CORNING #3598) at following initial cell numbers: 1000 cells per well for HL-60; 1000 cells per well for NB-4; 5000 cells per well for HH; 5000 cells per well for RPMI-8402; 1500 cells per well for TANOUE; 9000 cells per well for TT; 2000 cells per well for HeLa; 3000 cells per well for MDA-MB-231; 3000 cells per well for FU-OV-1; 4000 cells per well for LOU-NH91; 2000 cells per well for 23132/87; 2000 cells per well for CAL-27; 1500 cells per well for BHY; 1500 cells per well for SCC-25; 700 cells per well for A-431; 1000 cells per well for HPEK; 500 cells per well for C2-C12. The cells were treated with compounds at indicated final concentrations (diluted from the 1000× stock-solutions in DMSO to a final DMSO concentration of 0.1% v/v in H2O (Water For Injection, WFI, Fisherscientific #10378939)) or with the empty carrier DMSO at 0.1% v/v as control for 5 days. At day 5 after starting the treatments the cells were subjected to the alamarBlue® Proliferation Assay (Bio-Rad Serotec GmbH, BUF012B) according to the protocol of the manufacturer. The readout was taken with a multi-well plate-reader in the fluorescence mode with applying a filter for excitation at 560 nm (band width 10 nm) and for emission at 590 nm (band width 10 nm). Control treatments for growth inhibition with commercial compounds such as Methotrexate (MTREX) and Resveratrol (RES) were included on every plate. Some of the test compounds of the present invention were obtained and applied as their salts. According cases are indicated in the column “Specification” in Table 30 to Table 62 and by their sum formula in Table 63.
(§2) The assays were performed in duplicate or more replicates of independent single experiments each containing a six-fold replicate for every condition. For every individual plate, the measured fluorescence intensity values of the conditions with compound treatment were normalized against the corresponding equally weighted arithmetic mean of the fluorescence intensity values of the six DMSO treated control wells in order to obtain the relative values to a baseline level of 1.0.
(§3) Two independent outlier analyses were performed according to the methods by Peirce and Chauvenet (Ross, Journal of Engineering Technology 2003, 1-12). Outliers confirmed by at least one of the methods were excluded from the calculations but not more than one value out of six per compound within a single experiment. The weighted arithmetic mean (here abbreviated as AVEw) for each compound was calculated from the normalized values over all independent replicates of the single experiments comprising the six replicates each. The corresponding standard deviation for the weighted arithmetic mean was calculated according to the method described by Bronstein et al. (Bronstein, Semendjajew, Musiol, Muhlig, Taschenbuch der Mathematik, 5th edition 2001 (German), publisher: Verlag Harri Deutsch, Frankfurt am Main and Thun) and was combined with the Gauβ′ error propagation associated with the performed calculation for the normalization. The resulting standard deviation is herein referred to as “combined standard deviation”. […]
(Resazurin is reduced to fluorescent resorufin, in cell work by metabolically active cells.)

Assay [2] relates to TANOUE cells (human B cell leukemia cells). The assay is described as follows: Proliferation assay (alamarBlue) with TANOUE cells. As to conditions: Homo sapiens, B-cell, read-out: Activity Range: weighted arithmetic mean (AVEw) of normalized fluorescence intensity relative to DMSO basis level 1.0.
Excerpt: as §1, §2, §3

In assay [3] the test system is C2C12 cells (murine myoblast cells). Kind of assay: Proliferation assay (alamarBlue) with C2C12 cells. Particulars: Mus musculus, compound at 20 μM, read-out: Activity Range: weighted arithmetic mean (AVEw) of normalized fluorescence intensity, relative to DMSO basis level 1.0.
Excerpt: as §1, §2, §3

Assay [4] concerns A-431 cells (human epidermoid squamous cell carcinoma cells). The assay is described as follows: Proliferation assay (alamarBlue) with A-431 cells. As to conditions: for activity at 20 µM: Homo sapiens, read-out: Activity Range: weighted arithmetic mean (AVEw) of normalized fluorescence intensity relative to DMSO basis level 1.0.
Excerpt: as §1, §2, §3

For assay [5], the system named is HeLa cells (human cervical adenocarcinoma cells). The assay is described as follows: Proliferation assay (alamarBlue) with HeLa cells. Particulars: compound at 20 μM. The source says:
(§4) The antiproliferative activities of compounds falling under formula (Ia), (Tb) and (Ic), respectively, were investigated on cells or cell lines originating from a disorder of the haematopoietic system, including the myeloid cell compartment and the lymphoid cell compartment (T-cells and B-cells), the neuroendocrine system, the cervix, the breast, the ovaries, the lung, the gastrointestinal tract, and the mucosal epithelium, as well as from the skin epithelium and from the muscle. To this end, HL-60 cells, NB-4 cells, HH cells, RPMI-8402 cells, TANOUE cells, TT cells, HeLa cells, MDA-MB-231 cells, FU-OV-1 cells, LOU-NH91 cells, 23132/87 cells, CAL-27 cells, BHY cells, SCC-25 cells, A-431 cells, human primary epidermal keratinocytes (HPEK), and C2C12 cells were seeded into 96-well plates suitable for fluorescence assays (CORNING #3598) at following initial cell numbers: 1000 cells per well for HL-60; 1000 cells per well for NB-4; 5000 cells per well for HH; 5000 cells per well for RPMI-8402; 1500 cells per well for TANOUE; 9000 cells per well for TT; 2000 cells per well for HeLa; 3000 cells per well for MDA-MB-231; 3000 cells per well for FU-OV-1; 4000 cells per well for LOU-NH91; 2000 cells per well for 23132/87; 2000 cells per well for CAL-27; 1500 cells per well for BHY; 1500 cells per well for SCC-25; 700 cells per well for A-431; 1000 cells per well for HPEK; 500 cells per well for C2-C12. […] The readout was taken with a multi-well plate-reader in the fluorescence mode with applying a filter for excitation at 560 nm (band width 10 nm) and for emission at 590 nm (band width 10 nm). […]
(§5) The assays were performed in duplicate or more replicates of independent single experiments each containing a six-fold replicate for every condition. For every individual plate, the measured fluorescence intensity values of the conditions with compound treatment were normalized against the corresponding equally weighted arithmetic mean of the fluorescence intensity values of the six DMSO treated control wells in order to obtain the relative values to a baseline level of 1.0. […]

Assay [6] concerns CAL-27 cells (human tongue squamous cell carcinoma cells). The assay is described as follows: Proliferation assay (alamarBlue) with CAL-27 cells. As to conditions: read-out: Activity Range: weighted arithmetic mean (AVEw) of normalized fluorescence intensity relative to DMSO basis level 1.0.
Excerpt: as §1, §2, §3

In assay [7] the test system is FU-OV-1 cells (human ovarian carcinoma cells). The assay is described as follows: Proliferation assay (alamarBlue) with FU-OV-1 cells. As to conditions: 20 μM.
Excerpt: as §4, §5

For assay [8], the system named is SCC-25 cells (human tongue squamous cell carcinoma cells). Kind of assay: Proliferation assay (alamarBlue) with SCC-25 cells. As to conditions: Homo sapiens, read-out: Activity Range: weighted arithmetic mean (AVEw) of normalized fluorescence intensity relative to DMSO basis level 1.0.
Excerpt: as §1, §2, §3

The subject of assay [9] is RPMI-8402 cells (human T cell acute lymphoblastic leukemia cells). The assay is described as follows: Proliferation assay (alamarBlue) with RPMI-8402 cells. Particulars: Homo sapiens, read-out: Activity Range: weighted arithmetic mean (AVEw) of normalized fluorescence intensity relative to DMSO basis level 1.0.
Excerpt: as §1, §2, §3

For assay [10], the system named is NB-4 cells (human acute promyelocytic leukemia cells). The assay is described as follows: Proliferation assay (alamarBlue) with NB-4 cells. Particulars: for activity at 20 µM: Homo sapiens, Table 32, compound at 20 μM, read-out: Activity Range (AVEw, weighted arithmetic mean of normalized fluorescence intensity, DMSO = 1.0).
Excerpt: as §1, §2, §3

For assay [11], the system named is TT cells (human medullary thyroid carcinoma cells). The assay is described as follows: Proliferation assay (alamarBlue) with TT cells. As to conditions: compound at 20 μM.
Excerpt: as §4, §5

Assay [12] relates to BHY cells (human oral squamous cell carcinoma cells). Kind of assay: Proliferation assay (alamarBlue) with BHY cells. Particulars: read-out: Activity Range: weighted arithmetic mean (AVEw) of normalized fluorescence intensity relative to DMSO basis level 1.0.
Excerpt: as §1, §2, §3

Assay [13] relates to 23132/87 cells (human gastric adenocarcinoma cells). The assay is described as follows: Proliferation assay (alamarBlue) with 23132/87 cells. Particulars: read-out: Activity Range: weighted arithmetic mean (AVEw) of normalized fluorescence intensity relative to DMSO basis level 1.0.
Excerpt: as §1, §2, §3

The subject of assay [14] is LOU-NH91 cells (human lung squamous cell carcinoma cells). The assay is described as follows: Proliferation assay (alamarBlue) with LOU-NH91 cells. As to conditions: 20 μM.
Excerpt: as §4, §5

The subject of assay [15] is HL-60 cells (human acute myeloid leukemia cells). The assay is described as follows: Proliferation assay (alamarBlue) with HL-60 cells. Particulars: for activity at 20 µM: Homo sapiens, Table 30, compound at 20 μM, read-out: Activity Range (AVEw, weighted arithmetic mean of normalized fluorescence intensity, DMSO = 1.0).
Excerpt: as §1, §2, §3

Assay [16] relates to HH cells (human cutaneous T-cell lymphoma cells). The assay is described as follows: Proliferation assay (alamarBlue) with HH cells. Particulars: Table 34, compound at 20 μM, read-out: Activity Range (AVEw, weighted arithmetic mean of normalized fluorescence intensity, DMSO = 1.0).
Excerpt: as §1, §2, §3

The test system of assay [17] is HPEKp cells (human epidermal keratinocyte progenitors, pooled). Kind of assay: Proliferation assay (alamarBlue) with HPEKp cells. Particulars: compound at 10 μM, read-out: Activity Range: weighted arithmetic mean (AVEw) of normalized fluorescence intensity, relative to DMSO basis level 1.0.
Excerpt: as §1, §2, §3

Consider `CN(Cc1cnc2nc(N)nc(N)c2n1)c1ccc(C(=O)N[C@@H](CCC(=O)O)C(=O)O)cc1` [MTREX, Methotrexate, reference compound], for which the activity at 20 µM came out at 60% in assay [1]; 10% in assay [2]; 10% in [3]; 20 ± 10% in [4]; 10% in [6]; 50 ± 10% in assay [8]. Besides, the activity at 20 µM amounted to 10% in [9]; 10% in [10]; 30% in assay [12]; 30% in [13]; 10 ± 10% in [15]; 40 ± 10% in assay [16]. Also, the “Activity Range: weighted arithmetic mean (AVEw) of normalized fluorescence intensity relative to DMSO basis level 1.0” value amounted to 0.2 ± 0.1 in assay [4] (compound at 20 μM); 0.4 ± 0.0 in [5]; 1 ± 0.0 in assay [7]; 1.0 ± 0.0 in assay [11]; 0.5 ± 0.1 in assay [14]. In addition, the “Activity Range (AVEw, weighted arithmetic mean of normalized fluorescence intensity, DMSO = 1.0)” value in [10] (Table 33, compound at 20 μM) is recorded as 0.1 ± 0.0; in [15] (Table 31, compound at 20 μM), 0.1 ± 0.1.
For the molecule `COC1(c2ccc(Oc3ccc(C45CC6CC(CC(C6)C4)C5)cc3)cc2)CN(C)C1` [XPA-0238, 3-(4-(4-((3r,5r,7r)-adamantan-1-yl)phenoxy)phenyl)-3-methoxy-1-methylazetidine], the activity at 20 µM in [1], in assay [2], in [3], in assay [4], in assay [6] and in assay [8] was 0 to 20% in each case. The activity at 20 µM in assay [9], in assay [10], in [12], in [13], in [15] and in assay [16] was 0 to 20% each time. For the same molecule, the activity at 10 µM in [17] was in the range of 40 to 60%.
Regarding `c1ccc(COC2(c3ccc(Oc4ccc(C5CCCCC5)cc4)cc3)CNC2)cc1` [XPA-1317, 3-(benzyloxy)-3-(4-(4-cyclohexylphenoxy)phenyl)azetidine], the activity at 20 µM in [1], in [2], in assay [3], in [4], in assay [6] and in assay [8] was 0 to 20% throughout. Further, the activity at 20 µM in assay [9], in [10], in assay [12], in assay [13], in assay [15] and in assay [16] was 0 to 20% in each case. In addition, in [17], the activity at 10 µM lay within 0 to 20%.
